Data published in patent US10189841B2, “Purinones as ubiquitin-specific protease 1 inhibitors” (Forma Therapeutics, Inc., priority 2015, dated 2019).

Molecular target: USP1 (construct USP1 (I-785, GG670, 671AA)/UAF1 (I-677)-Flag) (Homo sapiens (Human), UniProt O94782, G670A/G671A)
Assay: Ubiquitin-Rhodamine 110 assay for USP1 activity
Assay type: biochemical
Details: USP1/UAF1 25 pM, Ub-Rh110 25 nM, 30 min preincubation
Procedure, shortened: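 Ub-Rh110 (25 nM, ≪Km) cleavage read at ex 485/em 535 in Tris pH 8.0, CaCl2, GSH, Prionex, Triton X-100. The screen used 10 µM compound, 100 pM USP1/UAF1 and 45 min at RT.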

Sequence of USP1 (construct USP1 (I-785, GG670, 671AA)/UAF1 (I-677)-Flag) (O94782 whole entry G670A/G671A): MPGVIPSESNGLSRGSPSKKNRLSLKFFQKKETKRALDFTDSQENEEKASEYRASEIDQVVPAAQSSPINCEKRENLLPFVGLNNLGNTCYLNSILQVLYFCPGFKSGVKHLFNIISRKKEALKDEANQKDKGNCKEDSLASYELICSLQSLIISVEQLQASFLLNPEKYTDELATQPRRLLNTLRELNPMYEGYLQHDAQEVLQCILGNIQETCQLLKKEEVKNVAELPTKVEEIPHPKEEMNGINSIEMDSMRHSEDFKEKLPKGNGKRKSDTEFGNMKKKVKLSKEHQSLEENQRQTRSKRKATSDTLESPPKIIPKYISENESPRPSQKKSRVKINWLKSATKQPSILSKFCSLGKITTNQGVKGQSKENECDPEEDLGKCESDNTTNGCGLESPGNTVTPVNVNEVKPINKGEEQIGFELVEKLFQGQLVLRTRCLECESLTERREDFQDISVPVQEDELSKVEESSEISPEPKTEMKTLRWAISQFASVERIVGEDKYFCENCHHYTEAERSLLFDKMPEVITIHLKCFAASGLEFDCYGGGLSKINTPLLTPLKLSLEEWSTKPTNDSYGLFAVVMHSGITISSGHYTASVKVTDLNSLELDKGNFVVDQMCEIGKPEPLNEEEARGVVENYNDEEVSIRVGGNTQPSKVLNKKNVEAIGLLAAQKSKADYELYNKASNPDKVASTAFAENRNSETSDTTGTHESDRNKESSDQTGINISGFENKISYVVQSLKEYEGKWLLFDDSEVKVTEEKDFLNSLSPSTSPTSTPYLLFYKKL
Sequence of USP1 (construct USP1 (I-785, GG670, 671AA)/UAF1 (I-677)-Flag) (Q8TAF3 whole entry partner): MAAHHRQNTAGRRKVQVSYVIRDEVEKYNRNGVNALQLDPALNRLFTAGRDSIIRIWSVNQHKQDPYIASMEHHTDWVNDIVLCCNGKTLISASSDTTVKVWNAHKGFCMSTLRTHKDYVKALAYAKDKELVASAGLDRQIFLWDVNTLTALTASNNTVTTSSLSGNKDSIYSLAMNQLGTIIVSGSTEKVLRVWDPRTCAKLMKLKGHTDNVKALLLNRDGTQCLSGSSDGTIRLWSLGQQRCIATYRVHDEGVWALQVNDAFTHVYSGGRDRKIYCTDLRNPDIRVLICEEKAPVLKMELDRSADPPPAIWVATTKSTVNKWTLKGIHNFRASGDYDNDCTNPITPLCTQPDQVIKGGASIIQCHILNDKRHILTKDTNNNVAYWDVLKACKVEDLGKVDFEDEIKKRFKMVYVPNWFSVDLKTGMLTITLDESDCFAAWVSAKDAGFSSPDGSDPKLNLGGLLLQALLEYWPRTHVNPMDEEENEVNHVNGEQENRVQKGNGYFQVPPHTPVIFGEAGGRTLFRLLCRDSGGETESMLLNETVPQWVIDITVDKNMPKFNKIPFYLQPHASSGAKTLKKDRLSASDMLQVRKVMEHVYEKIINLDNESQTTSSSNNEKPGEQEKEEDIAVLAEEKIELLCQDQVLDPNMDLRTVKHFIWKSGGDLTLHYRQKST

`CC(=O)N1CCC(c2ccn(-c3ccc(Cn4c(=O)[nH]c5cnc(-c6cccc(F)c6C(C)C)nc54)cc3)n2)CC1` [Compound I-464, 9-(4-(3-(1-acetylpiperidin-4-yl)-1H-pyrazol-1-yl)benzyl)-2-(3-fluoro-2-isopropylphenyl)-7,9-dihydro-8H-purin-8-one] gave an IC50 of 50 to 200 nM.
For `CC(=O)N1CCC(c2ccn(-c3ccc(Cn4c(=O)[nH]c5cnc(-c6cccnc6C(C)C)nc54)cc3)n2)CC1` [Compound I-465, 9-(4-(3-(1-acetylpiperidin-4-yl)-1H-pyrazol-1-yl)benzyl)-2-(2-isopropylpyridin-3-yl)-7,9-dihydro-8H-purin-8-one], the IC50 was 200 to 2000 nM.
With `CC(=O)N1CCC(c2ccn(-c3ccc(Cn4c(=O)[nH]c5cnc(-c6cccnc6OCC(F)(F)F)nc54)cc3)n2)CC1` [Compound I-466, 9-(4-(3-(1-acetylpiperidin-4-yl)-1H-pyrazol-1-yl)benzyl)-2-(2-(2,2,2-trifluoroethoxy)pyridin-3-yl)-7,9-dihydro-8H-purin-8-one] the IC50 was 200 to 2000 nM.
Work on `CC(=O)N1CCC(c2ccn(-c3ccc(Cn4c(=O)[nH]c5cnc(-c6ccccc6C(C)C)nc54)cc3)n2)C1` (stereo not shown) [Compound I-467, 9-(4-(3-(1-acetylpyrrolidin-3-yl)-1H-pyrazol-1-yl)benzyl)-2-(2-isopropylphenyl)-7,9-dihydro-8H-purin-8-one] yielded an IC50 of 50 to 200 nM.
`CC(=O)N1CCCC(c2ccn(-c3ccc(Cn4c(=O)[nH]c5cnc(-c6ccccc6C(C)C)nc54)cc3)n2)C1` (stereo not shown) [Compound I-468, 9-(4-(3-(1-acetylpiperidin-3-yl)-1H-pyrazol-1-yl)benzyl)-2-(2-isopropylphenyl)-7,9-dihydro-8H-purin-8-one] showed an IC50 of less than 50 nM.
Work on `Cc1cc(C(=O)Nc2ccc(Cn3c(=O)n(C)c4cnc(-c5ccccc5C(C)C)nc43)cc2)n(C)n1` [Compound I-469, N-(4-((2-(2-isopropylphenyl)-7-methyl-8-oxo-7,8-dihydro-9H-purin-9-yl)methyl)phenyl)-1,3-dimethyl-1H-pyrazole-5-carboxamide] yielded an IC50 of 200 to 2000 nM.
For `Cc1cc(C(=O)N(C)c2ccc(Cn3c(=O)n(C)c4cnc(-c5ccccc5C(C)C)nc43)cc2)n[nH]1` [Compound I-470, N-(4-((2-(2-isopropylphenyl)-7-methyl-8-oxo-7,8-dihydro-9H-purin-9-yl)methyl)phenyl)-N,5-dimethyl-1H-pyrazole-3-carboxamide], the IC50 was greater than 2000 nM.
`Cc1cc(C(=O)N(C)c2ccc(Cn3c(=O)n(C)c4cnc(-c5ccccc5C(C)C)nc43)cc2)n(C)n1` [Compound I-471, N-(4-((2-(2-isopropylphenyl)-7-methyl-8-oxo-7,8-dihydro-9H-purin-9-yl)methyl)phenyl)-N,1,3-trimethyl-1H-pyrazole-5-carboxamide] showed an IC50 greater than 2000 nM.
Work on `CC(=O)N1CCC(c2cn(C)c(-c3ccc(Cn4c(=O)[nH]c5cnc(-c6ccccc6C(C)C)nc54)cc3)n2)CC1` [Compound I-472, 9-(4-(4-(1-acetylpiperidin-4-yl)-1-methyl-1H-imidazol-2-yl)benzyl)-2-(2-isopropylphenyl)-7,9-dihydro-8H-purin-8-one] yielded an IC50 of less than 50 nM.
`CC(=O)N1CCC(c2cnc(-c3ccc(Cn4c(=O)[nH]c5cnc(-c6ccccc6C(C)C)nc54)cc3)n2C)CC1` [Compound I-473, 9-(4-(5-(1-acetylpiperidin-4-yl)-1-methyl-lH-imidazol-2-yl)benzyl)-2-(2-isopropylphenyl)-7,9-dihydro-8H-purin-8-one] showed an IC50 of less than 50 nM.
`CC(=O)N1CCC(c2ccn(-c3ccc(Cn4c(=O)[nH]c5cnc(-c6c(F)cccc6C(C)C)nc54)cc3)n2)CC1` [Compound I-474, 9-(4-(3-(1-acetylpiperidin-4-yl)-1H-pyrazol-1-yl)benzyl)-2-(2-fluoro-6-isopropylphenyl)-7,9-dihydro-8H-purin-8-one] gave an IC50 of less than 50 nM.
`CC(C)C(=O)N1CCC(F)(Cn2c(=O)[nH]c3cnc(-c4ccccc4C(C)C)nc32)CC1` [Compound I-475, 9-((4-fluoro-1-isobutyrylpiperidin-4-yl)methyl)-2-(2-isopropylphenyl)-7,9-dihydro-8H-purin-8-one] gave an IC50 greater than 2000 nM.
In the case of `CC(=O)N1CC(n2cc(C(F)(F)F)nc2-c2ccc(Cn3c(=O)[nH]c4cnc(-c5ccccc5C(C)C)nc43)cc2)C1` [Compound I-476, 9-(4-(1-(1-acetylazetidin-3-yl)-4-(trifluoromethyl)-1H-imidazol-2-yl)benzyl)-2-(2-isopropylphenyl)-7,9-dihydro-8H-purin-8-one], the IC50 is reported as less than 50 nM.
Compound `CC(=O)N1CC(n2cc(C(F)(F)F)nc2-c2ccc(Cn3c(=O)[nH]c4cnc(-c5cccnc5C(C)C)nc43)cc2)C1` [Compound I-477, 9-(4-(1-(1-acetylazetidin-3-yl)-4-(trifluoromethyl)-1H-imidazol-2-yl)benzyl)-2-(2-isopropylpyridin-3-yl)-7,9-dihydro-8H-purin-8-one] has an IC50 of less than 50 nM.
`CC(C)NC(=O)N1CCC(Cn2c(=O)n(C)c3cnc(-c4ccccc4C(C)C)nc32)CC1` [Compound I-478, N-isopropyl-4-((2-(2-isopropylphenyl)-7-methyl-8-oxo-7,8-dihydro-9H-purin-9-yl)methyl)piperidine-1-carboxamide] gave an IC50 greater than 2000 nM.
Work on `CC(C)c1ccccc1-c1ncc2c(n1)n(CC1CCN(C(=O)NC3CC3)CC1)c(=O)n2C` [Compound I-479, N-cyclopropyl-4-((2-(2-isopropylphenyl)-7-methyl-8-oxo-7,8-dihydro-9H-purin-9-yl)methyl)piperidine-1-carboxamide] yielded an IC50 greater than 2000 nM.
In the case of `CNC(=O)N1CCC(c2ccn(-c3ccc(Cn4c(=O)[nH]c5cnc(-c6ccccc6C(C)C)nc54)cc3)n2)CC1` [Compound I-480, 4-(1-(4-((2-(2-isopropylphenyl)-8-oxo-7,8-dihydro-9H-purin-9-yl)methyl)phenyl)-1H-pyrazol-3-yl)-N-methylpiperidine-1-carboxamide], the IC50 is reported as less than 50 nM.
With `CC(C)NC(=O)Nc1ccc(Cn2c(=O)n(C)c3cnc(-c4ccccc4C(C)C)nc32)cc1` [Compound I-481, 1-isopropyl-3-(4-((2-(2-isopropylphenyl)-7-methyl-8-oxo-7,8-dihydro-9H-purin-9-yl)methyl)phenyl)urea] the IC50 was 50 to 200 nM.
For `COCCNC(=O)Nc1ccc(Cn2c(=O)n(C)c3cnc(-c4ccccc4C(C)C)nc32)cc1` [Compound I-482, 1-(4-((2-(2-isopropylphenyl)-7-methyl-8-oxo-7,8-dihydro-9H-purin-9-yl)methyl)phenyl)-3-(2-methoxyethyl)urea], the IC50 was 200 to 2000 nM.
`CC(C)c1ccccc1-c1ncc2c(n1)n(Cc1ccc(NC(=O)NC3CC3)cc1)c(=O)n2C` [Compound I-483, 1-cyclopropyl-3-(4-((2-(2-isopropylphenyl)-7-methyl-8-oxo-7,8-dihydro-9H-purin-9-yl)methyl)phenyl)urea] gave an IC50 of 200 to 2000 nM.
`CC(C)NC(=O)N(C)c1ccc(Cn2c(=O)n(C)c3cnc(-c4ccccc4C(C)C)nc32)cc1` [Compound I-484, 3-isopropyl-1-(4-((2-(2-isopropylphenyl)-7-methyl-8-oxo-7,8-dihydro-9H-purin-9-yl)methyl)phenyl)-1-methylurea] gave an IC50 of 200 to 2000 nM.
`COCCNC(=O)N(C)c1ccc(Cn2c(=O)n(C)c3cnc(-c4ccccc4C(C)C)nc32)cc1` [Compound I-485, 1-(4-((2-(2-isopropylphenyl)-7-methyl-8-oxo-7,8-dihydro-9H-purin-9-yl)methyl)phenyl)-3-(2-methoxyethyl)-1-methylurea] was tested, and the IC50 was greater than 2000 nM.
